From patent US6884810B2, “Benzimidazole derivatives” (Zeria Pharmaceutical Co., Ltd., priority 2001, dated 2005)

Tests used:
CYP2C19 = target: T1, CYP2C19 (Homo sapiens, UniProt P33261); experiment: Human CYP2C19 activity inhibition test (S-(+)-mephenytoin to 4'-hydroxymephenytoin); format: in vitro ADME; conditions: human, pH 7.4, probe S-(+)-mephenytoin (to 4'-hydroxymephenytoin), test compound 10 μM; human CYP2C19 yeast expression system microsome; 4'-hydroxymephenytoin generated vs control; read-out: CYP2C19 residual activity (%)
T1 construct: purchased Sumitomo Chemical Co., Ltd; host or cells: yeast (microsomes)
T1 sequence (P33261 whole entry): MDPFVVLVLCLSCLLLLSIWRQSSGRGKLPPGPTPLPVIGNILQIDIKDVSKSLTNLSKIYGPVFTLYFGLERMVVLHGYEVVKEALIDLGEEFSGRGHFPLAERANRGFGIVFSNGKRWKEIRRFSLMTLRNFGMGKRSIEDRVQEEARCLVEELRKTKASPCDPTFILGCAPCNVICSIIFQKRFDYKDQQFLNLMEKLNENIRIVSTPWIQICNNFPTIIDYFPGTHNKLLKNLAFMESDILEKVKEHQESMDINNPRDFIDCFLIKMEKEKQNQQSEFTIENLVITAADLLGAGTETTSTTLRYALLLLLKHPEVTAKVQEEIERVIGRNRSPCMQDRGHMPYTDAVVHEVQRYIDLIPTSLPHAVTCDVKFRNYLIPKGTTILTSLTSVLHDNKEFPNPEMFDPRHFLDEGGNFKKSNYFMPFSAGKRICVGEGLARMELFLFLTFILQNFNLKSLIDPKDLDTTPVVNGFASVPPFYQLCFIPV
Procedure: (Human CYP2C19 Activity Inhibition Test)
CYP2C19 specifically participates in the metabolism reaction from S-(+)-mephenytoin to 4′-hydroxymephenytoin. Therefore, by use of an expression system CYP2C19, the production amount (concentration) of 4′-hydroxymephenytoin, serving as an index for CYP2C19 activity, was determined, whereby the inhibitory action of respective test substances was investigated.
(a) Metabolizing Activity Test
A solution of S-(+)-mephenytoin in methanol (125 μmol/L, 50 μL) and a solution of a test substance in methanol (25 μmol/L, 0, 10, 100, or 200 μL) were placed in a 10-mL glass test tube. The solvent was removed under a nitrogen gas at 40° C. A 75 μL mixture of 0.5M phosphate buffer (pH 7.4)-0.5 mM EDTA (20:10), 140 μL purified water, and 10 μL human CYP2C19 yeast expression system microsome (purchased from Sumitomo Chemical Co., Ltd.) were added.
Incubation was performed for 10 minutes at 37° C. Subsequently, aqueous 12% perchloric acid solution (50 μL) was added, to thereby stop the reaction.
After the reaction was stopped, an internal standard substance (I.S.) methyl p-hydroxybenzoate (100 μg/ mL, 50 μL), and diethyl ether (2 mL) were added. The mixture was shaken for 10 minutes, followed by centrifugation at 3,000 rpm for 10 minutes. The organic layer was separated, and the solvent was removed under a nitrogen gas at 40° C. The residue was dissolved in a 200 μL mobile phase, and the mixture was subjected to analysis by high performance liquid chromatography (HPLC).
In order to generate a calibration curve, the general procedure of the above process was repeated by use of 4′-hydroxymephenytoin solution instead of the S-(+)-mephenytoin solution. Quantitation was performed on the basis of the peak area ratio of 4′-hydroxymephenytoin to I.S. The amount of 4′-hydroxymephenytoin generated in the control sample was compared with that generated in the present of a test compound, and the results of comparison were used as an activity index.
HPLC was performed under the conditions described below (HPLC conditions A or HPLC conditions B).

[1] = system: gastric acid secreted under stimulation with histamine; experiment: Gastric acid secretion inhibition action, histamine-stimulated, acute Fistula method; format: in vivo, Sprague-Dawley (SD) rats; conditions: SD rats, administered in the duodenum, histamine 8 mg/kg/h, total acid discharge at 3, 4 and 5 hours, Probit method; for ED50: Rattus norvegicus
Procedure: (Gastric Acid Secretion Inhibition Action)
(1) Test Animals Employed were Sprague-Dawley (SD) Rats (7 Weeks Old, Male) Purchased from Charles River Japan, Inc. Before the Test, the Rats Were Fed for 5 Days or More.
Each test drug was suspended in, or dissolved in, 0.5% sodium carboxymethylcellulose solution, whereby a suspension or solution was prepared so as to attain 2.5 mL/kg.
(2) Measurement of Gastric Acid Secretion
The amount of gastric acid secreted under stimulation with histamine was measured on the rats fasted for 18 hours by use of the acute Fistula method as described by Hiramatsu et al. (Dig. Dis. Sci.,39, 689-697(1994)). Briefly, each rat was etherized lightly, and then a winged tubular needle filled with 3.8% citric acid solution was indwelled in the tail vein of the rat. The abdomen of the rat was opened, and the pyloric part of the stomach was ligated. Subsequently, a small hole was made in the duodenum, and the abdomen of the rat was closed with a feeding tube filled with saline indwelled. The inside of the stomach was washed with saline, a polyethylene-made Fistula tube (inner diameter: 4 mm) was set in the anterior stomach, and the cut portion of the anterior stomach was ligated and secured. The stomach and the duodenum were returned to the abdominal cavity, with the Fistula tube and the feeding tube exposed outside. The rat was placed in a Ballman cage II. Histamine was continuously administered through the winged injection needle which had been indwelled in the tail vein in advance (8 mg/kg/h, 1.38 mL/h). 15 Minutes thereafter, gastric juice of the rat was collected. Subsequently, collection of gastric juice was performed every one hour. Each time, the amount of the collected gastric juice was recorded, followed by titration with NaOH (0.1 mol/L) up to the end point pH 7.0. From the volume consumed for titration, acidity was calculated. The acid discharge amount was calculated as a product of the amount of the gastric juice and the acidity. Before starting the test, the rats were grouped so that the intra-group total amount of the gastric juice samples initially collected was the same between groups. Thereafter, each test drug was administered (2.5 mL/kg) in the duodenum through a feeding tube which had been attached to the duodenum in advance. To each rat of a control group, 0.5% Na-CMC solution was administered.
(3) Analysis of the Results
The data as obtained above are shown by way of mean±standard error. Total amount of acid discharge was obtained through summation of the amounts of acid discharge at three points in time; i.e., 3, 4 and 5 hours after initial collection of gastric juice. Percent inhibition of each group was computed from the total acid discharge amount of the control group and that of each group. On the basis of the percent inhibition calculated for each group, 50% effective dose (ED50) was computed by use of the Probit method.

activity at 10 min, 10 µM (CYP2C19) [%] | SMILES | ED50 [1] [mg/kg] | Gastric-acid secretion inhibition action [ED50 (mg/kg)] [1] [mg/kg]
35.4 | COc1ccc2nc([S@@+]([O-])Cc3ncc(C)c(OC)c3C)[nH]c2c1 [esomeprazole, reference compound] | 2.9 | 
18.4 | COc1ccc2[nH]c([S+]([O-])Cc3ncc(C)c(OC)c3C)nc2c1 (stereo not drawn) [omeprazole, reference compound] | 3.6 | 
33.1 | COc1ccnc(C[S+]([O-])c2nc3ccc(OC(F)F)cc3[nH]2)c1OC (stereo not drawn) [pantoprazole, reference compound] | 0.34 | 
39.8 | COCCCOc1ccnc(C[S+]([O-])c2nc3ccccc3[nH]2)c1C (stereo not drawn) [rabeprazole, reference compound] | 2.5 | 

Second part, the molecule before the results:

SMILES | activity at 10 min, 10 µM (CYP2C19) [%] | ED50 [1] [mg/kg] | Gastric-acid secretion inhibition action [ED50 (mg/kg)] [1] [mg/kg]
Cc1c(OCC(F)(F)F)ccnc1C[S+]([O-])c1nc2ccccc2[nH]1 (stereo not drawn) [lansoprazole, reference compound] | 8.7 | 1.1 | 
[O-][S+](Cc1cc(OCCCC(F)(F)F)ccn1)c1nc2ccccc2[nH]1 (single isomer, unassigned; (-)) [Example 10(2), (−)-2-[4-(4,4,4-trifluorobutoxy)pyridin-2-yl-methanesulfinyl]-1H-benzimidazole] | 89.4 | 0.97 | 
[O-][S+](Cc1cc(OCCOCC(F)(F)F)ccn1)c1nc2ccccc2[nH]1 (single isomer, unassigned; (-)) [Example 13(3), (−)-2-{4-[2-(2,2,2-trifluoroethoxy)ethoxy]pyridin-2-yl-methanesulfinyl}-1H-benzimidazole] | 98.6 | 0.59 | 
COc1c(OCCOCC(F)(F)F)ccnc1C[S+]([O-])c1nc2ccccc2[nH]1 (single isomer, unassigned; (+)) [Example 3(2), (+)-2-{3-methoxy-4-[2-(2,2,2-trifluoroethoxy)ethoxy]pyridin-2-yl-methylsulfinyl}-1H-benzimidazole] | 98.3 | 2.2 | 
COc1c(OCCOCC(F)(F)F)ccnc1C[S+]([O-])c1nc2ccccc2[nH]1 (stereo not drawn) [Example 2(2), 2-{3-methoxy-4-[2-(2,2,2-trifluoroethoxy)ethoxy]pyridin-2-yl-methylsulfinyl}-1H-benzimidazole] | 66.5 | 1.9 | 
COc1c(OCCCC(F)(F)F)ccnc1C[S+]([O-])c1nc2ccccc2[nH]1 (single isomer, unassigned; (-)) [Example 6(1), (−)-2-[3-methoxy-4-(4,4,4-trifluorobutoxy)pyridin-2-yl-methanesulfinyl]-1H-benzimidazole] | 66.4 |  | 1.4
COc1c(OCCCC(F)(F)F)ccnc1C[S+]([O-])c1nc2ccccc2[nH]1 (stereo not drawn) [Example 1(2), 2-[3-methoxy-4-(4,4,4-trifluorobutoxy)pyridin-2-yl-methylsulfinyl]-1H-benzimidazole] | 71.2 | 1.3 | 
[O-][S+](Cc1cc(OCCCC(F)(F)F)ccn1)c1nc2ccccc2[nH]1 (stereo not drawn) [Example 9(3), 2-[4-(4,4,4-trifluorobutoxy)pyridin-2-yl-methanesulfinyl]-1H-benzimidazole] | 76.1 | 0.32 | 
